For data set [1], the target named is T1, Mushroom tyrosinase (EC 1.14.18.1) (Agaricus bisporus, UniProt C7FF04).
T1 construct: purchased Sigma Chemical Co
Put plainly: Tyrosinase inhibitory assay (colorimetric, diphenolase activity, L-Dopa). The format is biochemical. The following applies: for IC50: L-Dopa as substrate, means ± RSD of 3 independent experiments. How it is done:
Mushroom tyrosinase (EC 1.14.18.1) (Sigma Chemical Co.) was assayed using L-Dopa as the substrate as reported in our previous studies with some modifications[30]–[32]. The enzyme diphenolase activity was monitored spectrophotometrically by observing dopachrome formation at 490 nm. All the test samples were first dissolved in DMSO at 10 mM and diluted to the required concentrations. Initially, in a 96-well microplate, 10 µl of test samples were added to 160 µl of 50 mM phosphate buffer (pH = 6.8) and then 10 µl tyrosinase (500 U mL^−1) was added. After the mixture was pre-incubated at 28 °C for 20 min, 20 µl of L-Dopa solution (7 mM) was added to the mixture. After 10 min incubation absorbance of samples was measured. DMSO without test compounds was used as the control, and kojic acid was used as a positive control. Each assay was conducted as three separate replicates. The inhibitory activity of the tested compounds was expressed as the concentration that inhibited 50% of the enzyme activity (IC50). […]

Data set [2] is described as follows: MTT assay for cell viability, HEK 293. Format: cell-based. The following applies: human, HEK 293 cells, 48 h, MTT, mean ± S.E.M.; for viability at 48 h, 16 µM: HEK 293, 16 µM; for viability at 48 h, 32 µM: HEK 293, 32 µM; for viability at 48 h, 64 µM: HEK 293, 64 µM. As for the experimental part: (§1) The cytotoxic activity of all derivatives against the HEK 293 cell line and 10g against A375 (at a density of 5 × 10^3 cells/ml) using 3-(4,5-dimethylthiazol-2-yl)-2,5- diphenyltetrazolium bromide (MTT) assay were performed. Cells were grown at 37 °C in the presence of CO2 5% in DMEM (Gibco BRL, Grand Island, NY, USA), 10% fetal bovine serum (FBS, Gibco BRL), and penicillin/streptomycin (100 IU/mL and 100 µg/mL, respectively). Next cells were seeded in a 96-well plate and incubated at 37 ^∘C with derivatives at different concentrations for 48 h. Following the treatment, cells were incubated with MTT (0.5 mg/ml) at 37 ^∘C for 3 h. The MTT-containing medium was then removed, and 100 μl of DMSO was added to each well, mixed thoroughly with a 10 min shake to dissolve formazan crystals. The absorbance of each well was measured at 540 nm[33].
Background: Tetrazolium dyes change colour on reduction, which living cells bring about.

The test system of the next data set is HEK 293 cell line. Briefly: MTT assay for cell viability, HEK 293. The format is cell-based. The following applies: for Cell viability (%): HEK 293, 32 µM, 48 h, MTT, mean ± S.E.M., 32 µM. How it is done:
as §1

For a further data set, the target named is mushroom tyrosinase. The following applies: cited from earlier work.

What is called IC50 is the point on the concentration scale where inhibition reaches its midpoint. Broadly, the viability is the share of living cells, or the viability signal relative to a control. A lower viability goes with more harm to the cells. As a reminder, the melting point is the temperature, or range, at which the solid turns liquid.

Where two headings read alike, the source gives them in different places.

T1 sequence (C7FF04 1-392 limits assumed): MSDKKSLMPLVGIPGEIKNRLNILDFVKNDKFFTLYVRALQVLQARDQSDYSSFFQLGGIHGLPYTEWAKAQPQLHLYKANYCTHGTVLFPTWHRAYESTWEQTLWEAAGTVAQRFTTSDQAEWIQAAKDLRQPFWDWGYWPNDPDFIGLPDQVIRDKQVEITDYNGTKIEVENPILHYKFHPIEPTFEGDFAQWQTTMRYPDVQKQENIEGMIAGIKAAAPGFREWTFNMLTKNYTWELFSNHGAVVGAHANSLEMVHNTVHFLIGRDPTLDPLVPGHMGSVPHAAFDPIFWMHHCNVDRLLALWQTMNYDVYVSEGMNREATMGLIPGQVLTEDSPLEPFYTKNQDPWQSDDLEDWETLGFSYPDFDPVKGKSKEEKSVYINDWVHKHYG

Regarding `COc1ccc(NC(=O)CSc2nc3ccccc3cc2/C=N/NC(N)=S)cc1` [Compound 10e, (E)-2-((3-((2-carbamothioylhydrazineylidene)methyl)quinolin-2-yl)thio)-N-(4-methoxyphenyl)acetamide], the melting point fell in the range of 191 to 193 °C. Also, inhibition in data set [1] was half-maximal at 47.4 µM (IC50). In addition, in data set [2], the viability at 48 h, 16 µM came to 85.6 ± 1.08%; the viability at 48 h, 32 µM worked out at 71.2 ± 3.86%; the viability at 48 h, 64 µM amounted to 62 ± 4.15%.

Regarding `COc1cccc2c1C(=O)c1c(O)c3c(c(O)c1C2=O)C[C@@](O)(C(=O)CO)C[C@@H]3O[C@H]1C[C@H](N)[C@H](O)[C@H](C)O1` [Doxorubicin, reference compound], in the data set on HEK 293 cell line (Homo sapiens, HEK293, HEK 293, MTT, read-out: IC50 (positive control)), the IC50 is 1.3 µM.

`Cc1ccc(CNC(=O)CSc2nc3ccccc3cc2/C=N/NC(N)=S)cc1` [Compound 10l, (E)-2-((3-((2-carbamothioylhydrazineylidene)methyl)quinolin-2-yl)thio)-N-(4-methylbenzyl)acetamide]: the melting point is 180 to 182 °C. In addition, in data set [1], inhibition was half-maximal at 78.5 µM (IC50). In data set [2], this molecule showed a viability at 48 h, 16 µM of 75.1 ± 1.99%; a viability at 48 h, 32 µM of 62.6 ± 1.58%; a viability at 48 h, 64 µM of 50 ± 0.88%.

`NC(=S)N/N=C/c1cc2ccccc2nc1SCC(=O)Nc1ccccc1` [Compound 10a, (E)-2-((3-((2-carbamothioylhydrazineylidene)methyl)quinolin-2-yl)thio)-N-phenylacetamide] returned a melting point of 180 to 182 °C. Also, the IC50 in data set [1] worked out at 155 µM. Besides, in data set [2], the viability at 48 h, 16 µM stood at 90.19 ± 0.89%; the viability at 48 h, 32 µM was determined as 72.2 ± 2.13%; the viability at 48 h, 64 µM came out at 65.8 ± 1.99%.

In turn, `NC(=S)N/N=C/c1cc2ccccc2nc1SCC(=O)NCc1ccccc1` [Compound 10k, (E)-N-benzyl-2-((3-((2-carbamothioylhydrazono)methyl)quinolin-2-yl)thio)acetamide] had a melting point of 183 to 185 °C. This molecule also showed an IC50 in data set [1] of 62 µM. Moreover, in data set [1] (ratio of tyrosinase IC50 values), the “fold improvement in the potency compared to 10a” value was “around 2.5 fold”. In data set [2], the viability at 48 h, 16 µM came to 77.3 ± 2.55%; the viability at 48 h, 32 µM came to 65.4 ± 3.49%; the viability at 48 h, 64 µM amounted to 51.1 ± 1.06%.

Molecule `NC(=S)N/N=C/c1cc2ccccc2nc1SCC(=O)Nc1ccc(Cl)cc1Cl` [Compound 10h, (E)-2-((3-((2-carbamothioylhydrazono)methyl)quinolin-2-yl)thio)-N-(2,4-dichlorophenyl)acetamide] displayed a melting point of 188 to 190 °C. This molecule registered an IC50 in data set [1] of 169 µM. In data set [2], this molecule had a viability at 48 h, 16 µM of 96.9 ± 1.59%; a viability at 48 h, 32 µM of 78.7 ± 2.19%; a viability at 48 h, 64 µM of 67.9 ± 3.21%.

With `Cc1cccc(NC(=O)CSc2nc3ccccc3cc2/C=N/NC(N)=S)c1C` [Compound 10d, (E)-2-((3-((2-carbamothioylhydrazono)methyl)quinolin-2-yl)thio)-N-(2,3-dimethylphenyl)acetamide], the melting point was 185 to 187 °C. Besides, it took 101 µM to reach half-maximal inhibition in data set [1] (IC50). Also, in data set [2], the viability at 48 h, 16 µM came out at 87.52 ± 0.65%; the viability at 48 h, 32 µM came out at 79.12 ± 0.62%; the viability at 48 h, 64 µM was found to be 71.4 ± 2.97%.

Consider `NC(=S)N/N=C/c1cc2ccccc2nc1SCC(=O)Nc1ccc([N+](=O)[O-])cc1` [Compound 10f, (E)-2-((3-((2-carbamothioylhydrazineylidene)methyl)quinolin-2-yl)thio)-N-(4-nitrophenyl)acetamide], for which the melting point was 180 to 182 °C. This molecule registered an IC50 in data set [1] of 39.8 µM. For the same molecule, in data set [2], the viability at 48 h, 16 µM was 97.67 ± 0.55%; the viability at 48 h, 32 µM is above 85%; the viability at 48 h, 64 µM came out at 80 ± 2.05%. Moreover, in the data set on HEK 293 cell line, the “Cell viability (%)” value is recorded as 88.12 ± 4.05%.

In the case of `NC(=S)N/N=C/c1cc2ccccc2nc1SCC(=O)NCc1ccc(F)cc1` [Compound 10m, (E)-2-((3-((2-carbamothioylhydrazono)methyl)quinolin-2-yl)thio)-N-(4-fluorobenzyl)acetamide], the melting point lay within 186 to 188 °C. Moreover, in data set [1], half-maximal inhibition (IC50) was put at 53.3 µM. Also, in data set [2], the viability at 48 h, 16 µM came to 95.5 ± 2.97%; the viability at 48 h, 32 µM was above 85%; the viability at 48 h, 64 µM amounted to 71.2 ± 5.42%. In the data set on HEK 293 cell line, the “Cell viability (%)” value stood at 86.44 ± 1.17%.

`Cc1ccc(NC(=O)CSc2nc3ccccc3cc2/C=N/NC(N)=S)cc1` [Compound 10b, (E)-2-((3-((2-carbamothioylhydrazono)methyl)quinolin-2-yl)thio)-N-(p-tolyl)acetamide] had a melting point of 180 to 185 °C. Besides, the IC50 in data set [1] is at least 200 µM. In data set [2], this molecule displayed a viability at 48 h, 16 µM of 96.2 ± 2.58% and a viability at 48 h, 32 µM of 81.5 ± 2.91%.

In the case of `OC[C@H]1O[C@@H](Oc2ccc(O)cc2)[C@H](O)[C@@H](O)[C@@H]1O` [arbutin], the IC50 at mushroom tyrosinase (tyrosinase) was 180 µM.

Consider `CCc1ccc(NC(=O)CSc2nc3ccccc3cc2/C=N/NC(N)=S)cc1` [Compound 10c, (E)-2-((3-((2-carbamothioylhydrazono)methyl)quinolin-2-yl)thio)-N-(4-ethylphenyl)acetamide], for which the melting point was 178 to 180 °C. In addition, inhibition in data set [1] was half-maximal at 85.3 µM (IC50). For the same molecule, in data set [2], the viability at 48 h, 16 µM turned out to be 82.55 ± 0.5%; the viability at 48 h, 32 µM was found to be 69.3 ± 1.81%; the viability at 48 h, 64 µM is 58.3 ± 1.03%.

In the case of `NC(=S)N/N=C/c1ccc(OCc2cn(CC(=O)NCc3ccccc3)nn2)cc1` [G], the values for the IC50 on mushroom tyrosinase (L-Dopa as substrate) and on mushroom tyrosinase (L-tyrosine as substrate) were 0.17 µM and 0.11 µM, respectively.

The molecule `NC(=S)N/N=C/c1cc2ccccc2nc1SCC(=O)Nc1ccccc1Br` [Compound 10j, (E)-N-(2-bromophenyl)-2-((3-((2-carbamothioylhydrazono)methyl)quinolin-2-yl)thio)acetamide] gave an IC50 in data set [1] of at least 200 µM. In data set [2], this molecule gave a viability at 48 h, 16 µM of 91.2 ± 4.35%; a viability at 48 h, 32 µM above 85%; a viability at 48 h, 64 µM of 79.9 ± 3.16%. Moreover, the “Cell viability (%)” value with HEK 293 cell line is on record as 88.65 ± 2.31%.

The record behind these values is PMC9925432, “Thioquinoline derivatives conjugated to thiosemicarbazide as potent tyrosinase inhibitors with anti-melanogenesis properties” (Scientific Reports, 2023).
